# Assay: Log P by HPLC on reversed phase columns (EEC directive 79/831 Annex V.A8; methods [a], [b], [c])
# Type: physicochemical
# Conditions: not given
# Method in brief: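 Log P derived from retention times, interpolated linearly between bracketing straight-chain alkan-2-ones (3–16 carbons) of known Log P. Eluents ran acetonitrile 10% to 95% against water with 0.1% formic acid ([a], acidic), 0.001 M ammonium acetate ([b], neutral) or 0.1% phosphoric acid ([c], acidic); UV read-out.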
row,Structure (SMILES),LogP
1,C[Si](C)(C)C#Cc1ccc(C(O)(Cn2cncc2C#N)C2(Cl)CC2)c(F)c1 (stereo not drawn) [I-650],4.03^[a]
2,COc1cc(F)ccc1C(O)Cn1cncc1Cl (stereo not drawn) [I-07],1.07^[a]
3,CC(O)(Cn1cncc1C#N)c1cnc(Oc2ccc(C(F)(F)F)cc2)cc1C(F)(F)F (stereo not drawn) [I-218],3.23^[a]
4,N#Cc1cncn1CC(O)(CC1CC1)c1cc(F)c(F)cc1F (stereo not drawn) [I-514],2.36^[a]
5,CC(C)(C)C(O)(Cn1cncc1C#N)c1ccc(F)cc1 (stereo not drawn) [I-347],2.51^[a]
6,CCC(O)(Cn1cncc1C#N)c1ccc(Cl)cc1 (stereo not drawn) [I-222],2.32^[a]
7,CC(C)CCCC(O)(Cn1cncc1C#N)C1(F)CC1 (stereo not drawn) [I-671],2.82^[a]
8,CC(C)(C)CC(O)(Cn1cncc1C#N)c1ccc(C(F)(F)F)cc1Cl (stereo not drawn) [I-268],3.85^[a]
9,N#Cc1cncn1CC(O)(c1cc(Br)ccc1Cl)C1(F)CC1 (stereo not drawn) [I-633],2.45^[a]
10,Cc1c(Cl)ccc(C(O)(Cn2cncc2C#N)C2(F)CC2)c1F (stereo not drawn) [I-685],2.63^[a]
11,N#Cc1ccc(C(O)(Cn2cncc2C#N)C2(F)CC2)c(Cl)c1 (stereo not drawn) [I-389],2.04^[a]
12,N#Cc1cncn1CC(O)(CC1CC1)C1(F)CC1 (stereo not drawn) [I-504],1.99^[a]
13,N#Cc1cncn1CC(O)(c1cc(Cl)c(Br)cc1Cl)C1(F)CC1 (stereo not drawn) [I-684],2.86^[a]
14,N#Cc1cncn1CC(O)(c1cc(Cl)cc(Cl)c1Cl)C1(Cl)CC1 (stereo not drawn) [I-614],2.80^[a]
15,N#Cc1cncn1CC(O)c1ccc(Oc2ccccc2)cc1F (stereo not drawn) [I-99],2.54^[a]
16,C[Si](C)(C)CCC(O)(Cn1cncc1C(F)(F)F)C1(Cl)CC1 (stereo not drawn) [I-691],4.24^[a]
17,C[Si](C)(C)C#CC(O)(Cn1cncc1C#N)C1(Cl)CC1 (stereo not drawn) [I-318],2.76^[a]
18,CC(C)(C)C(O)(Cn1cncc1C#N)c1ccc(F)c(Cl)c1 (stereo not drawn) [I-455],2.90^[a]
19,CCCC(O)(Cn1cncc1C#N)c1ccc(Cl)cc1F (stereo not drawn) [I-401],2.78^[a]
20,N#Cc1cncn1CC(O)(c1cc(F)ccc1Cl)C1(Cl)CC1 (stereo not drawn) [I-338],2.30^[a]
21,N#Cc1cncn1CC(O)(c1cc(Cl)c(F)c(Cl)c1)C1(F)CC1 (stereo not drawn) [I-477],2.74^[a]
22,N#Cc1cncn1CC(O)(c1ccc(Cl)cc1Br)C1(F)CC1 (stereo not drawn) [I-386],2.66^[a]
23,N#Cc1cncn1CC(O)(C#CC1CCCCC1)C1(F)CC1 (stereo not drawn) [I-543],2.64^[a]
24,N#Cc1cncn1CC(O)(c1ccc(Oc2ccc(Cl)cc2)cc1Cl)C1(F)CC1 (stereo not drawn) [I-390],3.64^[a]

row,Structure (SMILES),LogP
1,CC(C)(C)C(O)(Cn1cncc1C#N)c1cc(F)c(Cl)c(F)c1 (stereo not drawn) [I-491],3.01^[a]
2,N#Cc1cncn1CC(O)(CCCC1CCCCC1)C1(F)CC1 (stereo not drawn) [I-672],3.71^[a]
3,N#Cc1cncn1CC(O)c1ccc(Oc2ccc(Cl)cc2)cc1C(F)F (stereo not drawn) [I-72],3.09^[a]
4,C=CCOC(Cn1cncc1C#N)c1ccc(Oc2ccc(Br)cc2)cc1C(F)(F)F (stereo not drawn) [I-89],4.69^[a]
5,N#Cc1cncn1CC(O)(CCC1CCCC1)C1(Cl)CC1 (stereo not drawn) [I-596],3.37^[a]
6,OC(Cn1cncc1Cl)c1ccc(Oc2ccc(I)cc2)cc1F (stereo not drawn) [I-31],2.51^[a]
7,CCC(O)(Cn1cncc1C#N)c1ccccc1C(F)(F)F (stereo not drawn) [I-329],2.27^[a]
8,N#Cc1cncn1CC(O)c1ccc(Cl)cc1Cl (stereo not drawn) [I-144],2.12^[a]
9,OC(Cn1cncc1Br)c1ccc(Oc2ccc(Br)cc2)cc1C(F)(F)F (stereo not drawn) [I-26],3.02^[a]
10,N#Cc1cncn1CC(O)(c1ccc(F)c(F)c1Cl)C1(Cl)CC1 (stereo not drawn) [I-628],2.41^[a]
11,N#Cc1cncn1CC(O)c1ccccc1Br (stereo not drawn) [I-140],1.62^[a]
12,N#Cc1cncn1CC(O)c1ccc(Oc2ccc(I)cc2)cc1Br (stereo not drawn) [I-110],3.48^[a]
13,N#Cc1cncn1CC(O)c1ccc(Oc2ccc(Cl)cc2)cc1Br (stereo not drawn) [I-59],3.21^[a]
14,N#Cc1cncn1CC(O)(c1cc(F)c(Cl)c(Cl)c1)C1(F)CC1 (stereo not drawn) [I-535],2.78^[a]
15,N#Cc1cncn1CC(O)(CC1CC1)c1cc(F)c(Cl)c(F)c1 (stereo not drawn) [I-499],2.73^[a]
16,C#Cc1ccc(C(O)(Cn2cncc2C#N)C2(Cl)CC2)c(F)c1 (stereo not drawn) [I-659],2.42^[a]
17,N#Cc1cncn1CC(O)(c1c(F)cc(Cl)cc1F)C1(F)CC1 (stereo not drawn) [I-519],2.36^[a]
18,N#Cc1cncn1CC(O)(c1c(F)ccc(Cl)c1F)C1(F)CC1 (stereo not drawn) [I-587],2.28^[a]
19,N#Cc1cncn1CC(O)(c1ccc(Cl)nc1F)C1(F)CC1 (stereo not drawn) [I-552],1.96^[a]
20,CC(C)CC(O)(Cn1cncc1C#N)c1ccccc1C(F)(F)F (stereo not drawn) [I-343],2.88^[a]
21,OC(Cn1cncc1F)c1cnc(Oc2ccc(Cl)cc2F)cc1C(F)(F)F (stereo not drawn) [I-113],2.35^[a]
22,N#Cc1cncn1CC(O)(c1cnc(Br)cc1Cl)C1(F)CC1 (stereo not drawn) [I-686],1.97^[a]
23,CCC(=O)OC(Cn1cncc1F)c1ccc(Oc2ccc(Cl)cc2)cc1C(F)(F)F (stereo not drawn) [I-105],3.54^[a]
24,N#Cc1cncn1CC(O)c1ccc(Oc2ccc(I)cc2)cc1Cl (stereo not drawn) [I-95],3.44^[a]

row,Structure (SMILES),LogP
1,N#Cc1cncn1CC(O)(c1c(F)cccc1Cl)C1(F)CC1 (stereo not drawn) [I-434],2.08^[a]
2,CCCC(O)(Cn1cncc1C#N)c1ccc(Cl)cc1C(F)(F)F (stereo not drawn) [I-461],3.05^[a]
3,N#Cc1cncn1CC(O)(c1ccccc1Br)C1(Cl)CC1 (stereo not drawn) [I-255],2.37^[a]
4,CC(=O)c1cncn1CC(C)(O)c1ccc(Oc2ccc(C(C)C)cc2)nc1C(F)(F)F (stereo not drawn) [I-299],3.33^[a]
5,CCCC(O)(Cn1cncc1C#N)c1ccc(F)cc1F (stereo not drawn) [I-400],2.39^[a]
6,CC(C)CCCC(O)(Cn1cncc1C#N)C1(Cl)CC1 (stereo not drawn) [I-599],3.33^[a]
7,CC(O)(Cn1cncc1C#N)c1cnc(Oc2ccc(C(F)(F)F)cc2)cc1Br (stereo not drawn) [I-253],3.27^[a]
8,N#Cc1cncn1CC(O)(c1cnc(Cl)cc1Cl)C1(F)CC1 (stereo not drawn) [I-526],1.90^[a]
9,N#CCOC(Cn1cncc1C#N)c1ccc(Oc2ccc(Br)cc2)cc1C(F)(F)F (stereo not drawn) [I-87],3.73^[a]
10,N#Cc1cncn1CC(O)(c1cc(Br)c(F)cc1F)C1(F)CC1 (stereo not drawn) [I-573],2.47^[a]
11,N#Cc1cncn1CC(O)(c1cc(F)c(F)c(F)c1)C1(F)CC1 (stereo not drawn) [I-500],2.34^[a]
12,N#Cc1cncn1CC(O)(c1cc(F)cc(F)c1F)C1(Cl)CC1 (stereo not drawn) [I-620],2.29^[a]
13,COC(Cn1cncc1C#N)c1ccc(Oc2ccc(Br)cc2)cc1C(F)(F)F (stereo not drawn) [I-88],4.25^[a]
14,CC(O)(Cn1cncc1F)c1ccc(Oc2ccc(Br)nc2)nc1C(F)(F)F (stereo not drawn) [I-363],1.84^[a]
15,OC(Cn1cncc1Cl)c1ccc(Oc2ccccn2)cc1Cl (stereo not drawn) [I-80],1.53^[a]
16,OC(Cn1cncc1F)c1ccc(Oc2ccc(Br)nc2)nc1C(F)(F)F (stereo not drawn) [I-155],1.75^[a]
17,N#Cc1cncn1CC(O)(c1ccc(Br)cc1F)C1CC1 (stereo not drawn) [I-404],2.62^[a]
18,"CCCC(C)C(O)(Cn1cncc1C#N)c1ccc(Cl)cc1Cl (single isomer, unassigned) [I-316]",3.72^[a]
19,CC(O)(Cn1cncc1Cl)c1cnc(Oc2ccc(Cl)cc2)cc1Br (stereo not drawn) [I-177],2.48^[a]
20,N#Cc1cncn1CC(O)(c1ccc(Oc2ccccc2)cc1)C1(Cl)CC1 (stereo not drawn) [I-281],3.19^[a]
21,CC(C)(C)CC(O)(Cn1cncc1C#N)c1ccc(Cl)cc1F (stereo not drawn) [I-260],3.44^[a]
22,CCCCC(O)(Cn1cncc1C#N)c1ccccc1Br (stereo not drawn) [I-283],2.89^[a]
23,N#Cc1cncn1CC(O)(c1ccc(Cl)cc1F)C1(Cl)CC1 (stereo not drawn) [I-358],2.57^[a]
24,OC(Cn1cncc1F)(c1ccc(Cl)cc1Br)C1(F)CC1 (stereo not drawn) [I-431],1.73^[a]

row,Structure (SMILES),LogP
1,N#Cc1cncn1CC(O)(c1cc(Cl)cc(F)c1F)C1(F)CC1 (stereo not drawn) [I-570],2.44^[a]
2,N#Cc1cncn1CC(O)(c1cc(F)c(F)c(Br)c1)C1(F)CC1 (stereo not drawn) [I-471],2.58^[a]
3,CC(C)(C)C#Cc1ccc(C(O)(Cn2cncc2C#N)C2(Cl)CC2)c(Cl)c1 (stereo not drawn) [I-657],3.99^[a]
4,CC(O)(Cn1cncc1C(F)(F)F)c1ccc(Oc2ccc(Cl)cc2)cc1Cl (stereo not drawn) [I-183],4.25^[a]
5,N#Cc1cncn1CC(O)c1cnc(Oc2ccc(Br)nc2)cc1C(F)(F)F (stereo not drawn) [I-153],2.41^[a]
6,N#Cc1cncn1CC(O)(c1ccc(F)c(Br)c1F)C1(Cl)CC1 (stereo not drawn) [I-616],2.54^[a]
7,N#Cc1cncn1CC(O)(C#CCC(Cl)CCl)C1(F)CC1 (stereo not drawn) [I-604],2.08^[a]
8,N#Cc1cncn1CC(O)c1ccc(Oc2ccc(C(F)F)cc2)nc1C(F)(F)F (stereo not drawn) [I-145],2.77^[a]
9,N#Cc1cncn1CC(O)(c1ccc(Cl)c(F)c1F)C1(Cl)CC1 (stereo not drawn) [I-629],2.60^[a]
10,N#Cc1cncn1CC(O)(c1ccc(S(F)(F)(F)(F)F)cc1)C1(F)CC1 (stereo not drawn) [I-379],2.78^[a]
11,CC(O)(Cn1cncc1Cl)c1ccc(Oc2ccc(Br)cc2)cc1Cl (stereo not drawn) [I-173],2.80^[a]
12,N#Cc1cncn1CC(O)(c1ccc(Cl)nc1Br)C1(F)CC1 (stereo not drawn) [I-556],1.99^[a]
13,OC(Cn1cncc1Cl)c1ccc(Oc2ccc(OC(F)(F)F)cc2)cc1Cl (stereo not drawn) [I-04],2.82^[a]
14,N#Cc1cncn1CC(O)(c1ccc(Br)cc1Cl)C1CC1 (stereo not drawn) [I-420],2.88^[a]
15,N#Cc1cncn1CC(O)c1ccc(C(F)(F)F)cc1 (stereo not drawn) [I-141],1.90^[a]
16,NC(=S)c1cncn1CC(O)(CC1CC1)c1ccc(F)cc1F (stereo not drawn) [I-484],1.53^[a]
17,C#CC(O)(Cn1cncc1C#N)C1(Cl)CC1 (stereo not drawn) [I-670],1.36^[a]
18,OC(Cn1cncc1F)c1ccc(Oc2ccc(C(F)(F)F)nc2)nc1C(F)(F)F (stereo not drawn) [I-142],1.98^[a]
19,N#Cc1cncn1CC(O)(c1cccc(F)c1Cl)C1(Cl)CC1 (stereo not drawn) [I-557],2.25^[a]
20,N#Cc1cncn1CC(O)(CC1CC1)c1ccc(F)cc1F (stereo not drawn) [I-414],1.76^[a]
21,CC(C)C(O)(Cn1cncc1C#N)c1ccc(Cl)cc1F (stereo not drawn) [I-417],2.68^[a]

# Same assay, conditions: reversed phase HPLC column; method [a]: LC-UV, acidic range, 0.1% formic acid in water and acetonitrile as eluent (linear gradient from 10% to 95% acetonitrile)
row,Structure (SMILES),chromatographic logP
1,O=C(Cn1cncc1Br)c1ccc(Oc2ccc(Cl)cc2)cc1F [IX-46],2.86
2,O=C(Cn1cncc1Cl)c1ccc(O)cc1Cl [IX-145],0.97
3,O=C(Cn1cncc1Cl)c1ccc(Oc2ccc(Cl)cn2)cc1 [IX-02],2.12
